# Reference: paper PMC10410440, “Preclinical PK investigation of a novel IDO1/TDO dual inhibitor—SHR9146 in mouse plasma and tissues by LC-MS/MS” (Frontiers in Oncology, 2023)
# “Also recorded” adds a separate entry of the source. Read-outs that look alike come from different tables or passages of the source.
# Assay: Tissue distribution of SHR9146 in mice after oral gavage of 40 mg/kg
# Format: in vivo, ICR mice
# Settings: for concentration at 6 h / concentration at 24 h / concentration at 1 h / concentration at 3 h: male, ICR, mouse, po, 40 mg/kg oral gavage
# Procedure: ICR mice with body weight 16–26 g were supplied by Shanghai Lingchang Biotechnology Co., Ltd. (animal breeding license number SCXK (Shanghai) 2013-0018) and housed at Shanghai Institute of Materia Medica, Chinese Academy of Sciences [animal use license number SYXK (Shanghai) 2015-0027]. The mice used in this study were fasted overnight for 12 h but had free access to water. Food was supplied 4 h post-dose. All experiments in this study were conducted in accordance with the Guidelines for the Care and Use of Laboratory Animals of Shanghai Institute of Materia Medica, Chinese Academy of Sciences.
# Another set of 30 mice were randomly assigned into five groups with equal numbers, males and females, for tissue distribution study with oral gavage at a single dose of 40 mg/kg at predetermined different time points: pre-dose and post dose at 1, 3, 6, and 24 h, respectively. The whole brain, heart, liver, spleen, lung, kidney, bladder, pancreas, testis, ovary, uterus, stomach, small intestine, adrenal gland, skin, skeletal muscle, thyroid gland, and abdominal fat tissues as well as the whole blood and plasma samples were harvested. Tissue samples were washed with 0.9% sodium chloride solution to remove the residual blood or contents, blotted on a filter paper, and stored at −70°C prior to the analysis.
# Protein precipitation was selected for the pretreatment of both the plasma and the tissue homogenate prepared after thawing at room temperature, cut into pieces, and homogenized with a quintuple methanol–water mixture (1:1, v/v) for each tissue sample.
# Briefly as follows, an aliquot of 25-μL plasma or tissue homogenate was spiked with 100 μL of internal standard solution (1 μg/mL for plasma, 0.2 μg/mL for tissue homogenate) and 300 μL of methanol added and vortex mixed for 60 s. The mixture was then centrifuged at 14,000 rpm at 4°C for 5.0 min, and the supernatant was diluted with methanol–water (4:1, v/v) in a ratio of 1:9 for the plasma or 1:1 for the tissue homogenate, and 5 μL of the resulting solution was injected for the LC-MS/MS analysis.
# After oral administration of 40 mg/kg SHR9146, samples in different tissues at predetermined time points (pre-drug administration, post-drug administration at 1, 3, 6, and 24 h) were collected and prepared for the analysis. The drug concentrations of SHR9146 (μg/g or μg/mL) were determined for each mouse, and the mean and standard deviation were further obtained (Table S7).
# [1] = kidney, 40 mg/kg, Mean (n=3), read-out: SHR9146 concentration in Kidney
# [2] = liver, 40 mg/kg, Mean (n=3), read-out: SHR9146 concentration in Liver
# [3] = liver, 40 mg/kg, individual mice, read-out: SHR9146 concentration in Liver
# [4] = lung, 40 mg/kg, Mean (n=3), read-out: SHR9146 concentration in Lung
# [5] = lung, 40 mg/kg, individual mice, read-out: SHR9146 concentration in Lung
# [6] = pancreas, 40 mg/kg, Mean (n=3), read-out: SHR9146 concentration in Pancreas
# [7] = pancreas, 40 mg/kg, individual mice, read-out: SHR9146 concentration in Pancreas
# [8] = plasma, 40 mg/kg, Mean (n=3), read-out: SHR9146 concentration in Plasma
# [9] = plasma, 40 mg/kg, individual mice, read-out: SHR9146 concentration in Plasma
# [10] = skeletal muscle, 40 mg/kg, Mean (n=3), read-out: SHR9146 concentration in Skeletal muscle
# [11] = skeletal muscle, 40 mg/kg, individual mice, read-out: SHR9146 concentration in Skeletal muscle
# [12] = skin, 40 mg/kg, Mean (n=3), read-out: SHR9146 concentration in Skin
# [13] = small intestine, 40 mg/kg, Mean (n=3), read-out: SHR9146 concentration in Small intestine
# [14] = small intestine, 40 mg/kg, individual mice, read-out: SHR9146 concentration in Small intestine
# [15] = spleen, 40 mg/kg, Mean (n=3), read-out: SHR9146 concentration in Spleen
# [16] = spleen, 40 mg/kg, individual mice, read-out: SHR9146 concentration in Spleen
# [17] = stomach, 40 mg/kg, Mean (n=3), read-out: SHR9146 concentration in Stomach
# [18] = testis, 40 mg/kg, Mean (n=3), read-out: SHR9146 concentration in Testis
# [19] = thyroid gland, 40 mg/kg, Mean (n=3), read-out: SHR9146 concentration in thyroid gland
# [20] = thyroid gland, 40 mg/kg, individual mice, read-out: SHR9146 concentration in thyroid gland
# [21] = whole blood, 40 mg/kg, Mean (n=3), read-out: SHR9146 concentration in Whole blood
# [22] = whole blood, 40 mg/kg, individual mice, read-out: SHR9146 concentration in Whole blood
smiles,measurement,setting,value
OCCn1cc(-c2ccc(N3CCC([C@H]4c5c(F)cccc5-c5cncn54)CC3)cc2)cn1 [SHR9146],concentration at 6 h,[1],210 ng/g
same,concentration at 24 h,[1],18 ng/g
same,concentration at 24 h,"kidney, 40 mg/kg, individual mice, read-out: SHR9146 concentration in Kidney",55 ng/g
same,concentration at 1 h,[2],20000 ng/g
same,concentration at 1 h,[3],22000 ng/g
same,concentration at 3 h,[2],9670 ng/g
same,concentration at 6 h,[2],633 ng/g
same,concentration at 24 h,[2],110 ng/g
same,concentration at 24 h,[3],330 ng/g
same,concentration at 1 h,[4],12500 ng/g
same,concentration at 1 h,[5],13100 ng/g
same,concentration at 3 h,[4],5160 ng/g
same,concentration at 6 h,[4],645 ng/g
same,concentration at 6 h,[5],725 ng/g
same,concentration at 24 h,[4],11700 ng/g
same,concentration at 1 h,[6],12600 ng/g
same,concentration at 1 h,[7],13800 ng/g
same,concentration at 3 h,[6],4870 ng/g
same,concentration at 6 h,[6],67 ng/g
same,concentration at 6 h,[7],74 ng/g
same,concentration at 1 h,[8],9120 ng/mL
same,concentration at 1 h,[9],10100 ng/mL
same,concentration at 3 h,[8],3710 ng/mL
same,concentration at 6 h,[8],49 ng/mL
same,concentration at 6 h,[9],53 ng/mL
same,concentration at 1 h,[10],5600 ng/g
same,concentration at 1 h,[11],6100 ng/g
same,concentration at 3 h,[10],2220 ng/g
same,concentration at 6 h,[10],23 ng/g
same,concentration at 6 h,[11],70 ng/g
same,concentration at 1 h,[12],7210 ng/g
same,concentration at 3 h,[12],3110 ng/g
same,concentration at 6 h,[12],113 ng/g
same,concentration at 24 h,[12],21 ng/g
same,concentration at 24 h,"skin, 40 mg/kg, individual mice, read-out: SHR9146 concentration in Skin",64 ng/g
same,concentration at 1 h,[13],22700 ng/g
same,concentration at 1 h,[14],19200 ng/g
same,concentration at 3 h,[13],6910 ng/g
same,concentration at 6 h,[13],90 ng/g
same,concentration at 6 h,[14],117 ng/g
same,concentration at 1 h,[15],4840 ng/g
same,concentration at 1 h,[16],5540 ng/g
same,concentration at 3 h,[15],1700 ng/g
same,concentration at 6 h,[15],17 ng/g
same,concentration at 6 h,[16],51 ng/g
same,concentration at 1 h,[17],38000 ng/g
same,concentration at 1 h,"stomach, 40 mg/kg, individual mice, read-out: SHR9146 concentration in Stomach",39900 ng/g
same,concentration at 3 h,[17],10200 ng/g
same,concentration at 6 h,[17],1140 ng/g
same,concentration at 24 h,[17],499 ng/g
same,concentration at 1 h,[18],4000 ng/g
same,concentration at 1 h,"testis, 40 mg/kg, individual mice, read-out: SHR9146 concentration in Testis",4160 ng/g
same,concentration at 3 h,[18],1660 ng/g
same,concentration at 6 h,[18],100 ng/g
same,concentration at 1 h,[19],7010 ng/g
same,concentration at 1 h,[20],7250 ng/g
same,concentration at 3 h,[19],2730 ng/g
same,concentration at 6 h,[19],63 ng/g
same,concentration at 6 h,[20],71 ng/g
same,concentration at 1 h,[21],6060 ng/mL
same,concentration at 1 h,[22],6820 ng/mL
same,concentration at 3 h,[21],2440 ng/mL
same,concentration at 6 h,[21],22 ng/mL
same,concentration at 6 h,[22],67 ng/mL
same,distribution into brain,"oral 40 mg/kg, mice, 40 mg/kg",lowest; also recorded: rarely distributed in the brain
same,tissue distribution,"oral 40 mg/kg, mice, 40 mg/kg","widely distributed in various tissues and mainly distributed in the stomach, adrenal gland, liver, and lung"
same,tissue concentration at 24 h as share of the highest concentration,"oral 40 mg/kg, mice, last time point 24 h",around 3.1%
